Laboratory results: US9486506B2 (Novo Nordisk A/S, priority 2011, dated 2016)
Numbered stars: 1 amine (or outer) side, 2 acyl side, 3 side chain; on linkers, the order of the positions; unused ones are H or OH. Side chains are listed from the residue outwards. Peptide text beside a SMILES is read from it. * marks the point of attachment. C18 diacid = O=C(O)CCCCCCCCCCCCCCCCC(=O)*; C16 diacid = O=C(O)CCCCCCCCCCCCCCC(=O)*; γGlu = O=C(O)[C@H](CCC(=O)[*:2])N[*:1]; AEEA = NCCOCCOCC(=O)O

Molecular target: T1, glucagon receptor (Homo sapiens, UniProt P47871)
T1 construct: expressed in transfected cells
T1 sequence (P47871 26-477): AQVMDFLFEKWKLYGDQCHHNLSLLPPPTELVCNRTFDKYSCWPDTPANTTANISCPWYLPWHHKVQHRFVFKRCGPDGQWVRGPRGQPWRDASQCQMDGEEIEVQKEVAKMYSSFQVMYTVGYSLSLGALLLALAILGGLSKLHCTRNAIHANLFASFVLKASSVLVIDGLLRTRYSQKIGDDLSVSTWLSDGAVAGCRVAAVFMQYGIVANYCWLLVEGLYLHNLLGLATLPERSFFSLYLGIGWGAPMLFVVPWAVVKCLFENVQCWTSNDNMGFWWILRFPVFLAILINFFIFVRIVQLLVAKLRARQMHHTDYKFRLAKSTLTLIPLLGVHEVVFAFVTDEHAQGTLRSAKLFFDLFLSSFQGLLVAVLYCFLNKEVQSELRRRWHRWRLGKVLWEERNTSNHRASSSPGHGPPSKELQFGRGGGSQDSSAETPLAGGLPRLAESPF
Assay: Assay (I) Glucagon activity (cAMP biosensor, FLIPR)
Type: cell-based

Row | SMILES | EC50
1 | CC(C)C[C@H](NC(=O)[C@H](Cc1ccc(O)cc1)NC(=O)[C@H](CCCNC(=N)N)NC(=O)[C@H](CO)NC(=O)[C@@H](NC(=O)[C@H](CC(=O)O)NC(=O)[C@H](CO)NC(=O)[C@@H](NC(=O)[C@H](Cc1ccccc1)NC(=O)[C@@H](NC(=O)CNC(=O)[C@H](CCC(N)=O)NC(=O)[C@H](CO)NC(=O)[C@@H](N)Cc1c[nH]cn1)[C@@H](C)O)[C@@H](C)O)C(C)C)C(=O)N[C@@H](CCC(=O)O)C(=O)N[C@@H](CO)C(=O)N[C@@H](CCCNC(=N)N)C(=O)N[C@@H](CCCNC(=N)N)C(=O)N[C@@H](C)C(=O)N[C@@H](CCC(N)=O)C(=O)N[C@@H](CCC(=O)O)C(=O)N[C@@H](Cc1ccccc1)C(=O)N[C@H](C(=O)N[C@@H](CCCCNC(=O)CC[C@H](NC(=O)CC[C@H](NC(=O)COCCOCCNC(=O)COCCOCCNC(=O)CC[C@H](NC(=O)CCCCCCCCCCCCCCCCC(=O)O)C(=O)O)C(=O)O)C(=O)O)C(=O)N[C@@H](Cc1c[nH]c2ccccc12)C(=O)N[C@@H](CC(C)C)C(=O)N[C@@H](CCC(=O)O)C(=O)N[C@@H](CO)C(=O)N[C@H](C(=O)O)[C@@H](C)O)C(C)C [Example 54, N^ε24-[(4S)-4-carboxy-4-[[(4S)-4-carboxy-4-[[2-[2-[2-[[2-[2-[2-[[(4S)-4-carboxy-4-(17-carboxyheptadecanoylamino)butanoyl]amino]ethoxy]ethoxy]acetyl]amino]ethoxy]ethoxy]acetyl]amino]butanoyl]amino]butanoyl]-[Val10,Arg12,Glu15,Glu21,Lys24,Glu27,Ser28]-Glucagon] (H-HSQGTFTSDVSRYLESRRAQEFVK([γGlu-γGlu-AEEA-AEEA-γGlu-C18 diacid])WLEST-OH) | 1.63 nM
2 | CC(C)C[C@H](NC(=O)[C@H](Cc1ccc(O)cc1)NC(=O)[C@H](CCCNC(=N)N)NC(=O)[C@H](CO)NC(=O)[C@H](Cc1ccc(O)cc1)NC(=O)[C@H](CC(=O)O)NC(=O)[C@H](CO)NC(=O)[C@@H](NC(=O)[C@H](Cc1ccccc1)NC(=O)[C@@H](NC(=O)CNC(=O)[C@H](CCC(N)=O)NC(=O)[C@H](CO)NC(=O)[C@@H](N)Cc1c[nH]cn1)[C@@H](C)O)[C@@H](C)O)C(=O)N[C@@H](CCC(=O)O)C(=O)N[C@@H](CO)C(=O)N[C@@H](CCCNC(=N)N)C(=O)N[C@@H](CCCNC(=N)N)C(=O)N[C@@H](C)C(=O)N[C@@H](CCC(N)=O)C(=O)N[C@@H](CCC(=O)O)C(=O)N[C@@H](Cc1ccccc1)C(=O)N[C@H](C(=O)N[C@@H](CCCCNC(=O)CC[C@H](NC(=O)CC[C@H](NC(=O)COCCOCCNC(=O)COCCOCCNC(=O)CC[C@H](NC(=O)CCCCCCCCCCCCCCCCC(=O)O)C(=O)O)C(=O)O)C(=O)O)C(=O)N[C@@H](Cc1c[nH]c2ccccc12)C(=O)N[C@@H](CC(C)C)C(=O)N[C@@H](CCC(=O)O)C(=O)N[C@@H](CO)C(=O)N[C@H](C(=O)O)[C@@H](C)O)C(C)C [Example 55, N^ε24-[(4S)-4-carboxy-4-[[(4S)-4-carboxy-4-[[2-[2-[2-[[2-[2-[2-[[(4S)-4-carboxy-4-(17-carboxyheptadecanoylamino)butanoyl]amino]ethoxy]ethoxy]acetyl]amino]ethoxy]ethoxy]acetyl]amino]butanoyl]amino]butanoyl]-[Arg12,Glu15,Glu21,Lys24,Glu27,Ser28]-Glucagon] (H-HSQGTFTSDYSRYLESRRAQEFVK([γGlu-γGlu-AEEA-AEEA-γGlu-C18 diacid])WLEST-OH) | 1.09 nM
3 | CC(C)C[C@H](NC(=O)[C@H](Cc1ccc(O)cc1)NC(=O)[C@H](CCCCN)NC(=O)[C@H](CO)NC(=O)[C@H](Cc1ccc(O)cc1)NC(=O)[C@H](CC(=O)O)NC(=O)[C@H](CO)NC(=O)[C@@H](NC(=O)[C@H](Cc1ccccc1)NC(=O)[C@@H](NC(=O)CNC(=O)[C@H](CCC(N)=O)NC(=O)[C@H](CO)NC(=O)[C@@H](N)Cc1c[nH]cn1)[C@@H](C)O)[C@@H](C)O)C(=O)N[C@@H](CCC(=O)O)C(=O)N[C@@H](CO)C(=O)N[C@@H](CCCNC(=N)N)C(=O)N[C@@H](CCCNC(=N)N)C(=O)N[C@@H](C)C(=O)N[C@@H](CCC(N)=O)C(=O)N[C@@H](CC(=O)O)C(=O)N[C@@H](Cc1ccccc1)C(=O)N[C@H](C(=O)N[C@@H](CCCCNC(=O)CC[C@H](NC(=O)CC[C@H](NC(=O)COCCOCCNC(=O)COCCOCCNC(=O)CC[C@H](NC(=O)CCCCCCCCCCCCCCCCC(=O)O)C(=O)O)C(=O)O)C(=O)O)C(=O)N[C@@H](Cc1c[nH]c2ccccc12)C(=O)N[C@@H](CC(C)C)C(=O)N[C@@H](CCC(=O)O)C(=O)N[C@@H](CO)C(=O)N[C@H](C(=O)O)[C@@H](C)O)C(C)C [Example 59, N^ε24-[(4S)-4-carboxy-4-[[(4S)-4-carboxy-4-[[2-[2-[2-[[2-[2-[2-[[(4S)-4-carboxy-4-(17-carboxyheptadecanoylamino)butanoyl]amino]ethoxy]ethoxy]acetyl]amino]ethoxy]ethoxy]acetyl]amino]butanoyl]amino]butanoyl]-[Glu15,Lys24,Glu27,Ser28]-Glucagon] | 0.682 nM
4 | CC(C)C[C@H](NC(=O)[C@H](Cc1ccc(O)cc1)NC(=O)[C@H](CCCCN)NC(=O)[C@H](CO)NC(=O)[C@H](Cc1ccc(O)cc1)NC(=O)[C@H](CC(=O)O)NC(=O)[C@H](CO)NC(=O)[C@@H](NC(=O)[C@H](Cc1ccccc1)NC(=O)[C@@H](NC(=O)CNC(=O)[C@H](CCC(N)=O)NC(=O)[C@H](CO)NC(=O)[C@@H](N)Cc1c[nH]cn1)[C@@H](C)O)[C@@H](C)O)C(=O)N[C@@H](CCC(=O)O)C(=O)N[C@@H](CO)C(=O)N[C@@H](CCCNC(=N)N)C(=O)N[C@@H](CCCNC(=N)N)C(=O)N[C@@H](C)C(=O)N[C@@H](CCC(N)=O)C(=O)N[C@@H](CC(=O)O)C(=O)N[C@@H](Cc1ccccc1)C(=O)N[C@H](C(=O)N[C@@H](CCCCNC(=O)CC[C@H](NC(=O)CC[C@H](NC(=O)COCCOCCNC(=O)COCCOCCNC(=O)CC[C@H](NC(=O)CCCCCCCCCCCCCCCCC(=O)O)C(=O)O)C(=O)O)C(=O)O)C(=O)N[C@@H](Cc1c[nH]c2ccccc12)C(=O)N[C@@H](CC(C)C)C(=O)N[C@@H](CC(C)C)C(=O)N[C@@H](CCC(N)=O)C(=O)N[C@H](C(=O)O)[C@@H](C)O)C(C)C [Example 60, N^ε24-[(4S)-4-carboxy-4-[[(4S)-4-carboxy-4-[[2-[2-[2-[[2-[2-[2-[[(4S)-4-carboxy-4-(17-carboxyheptadecanoylamino)butanoyl]amino]ethoxy]ethoxy]acetyl]amino]ethoxy]ethoxy]acetyl]amino]butanoyl]amino]butanoyl]-[Glu15,Lys24,Leu27,Gln28]-Glucagon] | 0.517 nM
5 | CC(C)C[C@H](NC(=O)[C@H](Cc1ccc(O)cc1)NC(=O)[C@H](CCCNC(=N)N)NC(=O)[C@H](CO)NC(=O)[C@H](Cc1ccc(O)cc1)NC(=O)[C@H](CC(=O)O)NC(=O)[C@H](CO)NC(=O)[C@@H](NC(=O)[C@H](Cc1ccccc1)NC(=O)[C@@H](NC(=O)CNC(=O)[C@H](CCC(N)=O)NC(=O)[C@H](CO)NC(=O)[C@@H](N)Cc1c[nH]cn1)[C@@H](C)O)[C@@H](C)O)C(=O)N[C@@H](CCC(=O)O)C(=O)N[C@@H](CO)C(=O)N[C@@H](CCCNC(=N)N)C(=O)N[C@@H](CCCNC(=N)N)C(=O)N[C@@H](C)C(=O)N[C@@H](CCC(N)=O)C(=O)N[C@@H](CCC(=O)O)C(=O)N[C@@H](Cc1ccccc1)C(=O)N[C@H](C(=O)N[C@@H](CCCCNC(=O)CC[C@H](NC(=O)CC[C@H](NC(=O)COCCOCCNC(=O)COCCOCCNC(=O)CC[C@H](NC(=O)CCCCCCCCCCCCCCC(=O)O)C(=O)O)C(=O)O)C(=O)O)C(=O)N[C@@H](Cc1c[nH]c2ccccc12)C(=O)N[C@@H](CC(C)C)C(=O)N[C@@H](CC(C)C)C(=O)N[C@@H](CO)C(=O)N[C@H](C(=O)O)[C@@H](C)O)C(C)C [Example 71, N^ε24-[(4S)-4-carboxy-4-[[(4S)-4-carboxy-4-[[2-[2-[2-[[2-[2-[2-[[(4S)-4-carboxy-4-(15-carboxypentadecanoylamino)butanoyl]amino]ethoxy]ethoxy]acetyl]amino]ethoxy]ethoxy]acetyl]amino]butanoyl]amino]butanoyl]-[Arg12,Glu15,Glu21,Lys24,Leu27,Ser28]-Glucagon] (H-HSQGTFTSDYSRYLESRRAQEFVK([γGlu-γGlu-AEEA-AEEA-γGlu-C16 diacid])WLLST-OH) | 0.072 nM
6 | CC(C)C[C@H](NC(=O)[C@H](Cc1ccc(O)cc1)NC(=O)[C@H](CCCNC(=N)N)NC(=O)[C@H](CO)NC(=O)[C@H](Cc1ccc(O)cc1)NC(=O)[C@H](CC(=O)O)NC(=O)[C@H](CO)NC(=O)[C@@H](NC(=O)[C@H](Cc1ccccc1)NC(=O)[C@@H](NC(=O)CNC(=O)[C@H](CCC(N)=O)NC(=O)[C@H](CO)NC(=O)[C@@H](N)Cc1c[nH]cn1)[C@@H](C)O)[C@@H](C)O)C(=O)N[C@@H](CC(=O)O)C(=O)N[C@@H](C)C(=O)N[C@@H](CCCNC(=N)N)C(=O)N[C@@H](CCCNC(=N)N)C(=O)N[C@@H](C)C(=O)N[C@@H](CCC(N)=O)C(=O)N[C@@H](CC(=O)O)C(=O)N[C@@H](Cc1ccccc1)C(=O)N[C@H](C(=O)N[C@@H](CCCCNC(=O)CC[C@H](NC(=O)CC[C@H](NC(=O)CC[C@H](NC(=O)CC[C@H](NC(=O)CCCCCCCCCCCCCCC(=O)O)C(=O)O)C(=O)O)C(=O)O)C(=O)O)C(=O)N[C@@H](Cc1c[nH]c2ccccc12)C(=O)N[C@@H](CC(C)C)C(=O)N[C@@H](CC(C)C)C(=O)N[C@@H](CO)C(=O)N[C@H](C(=O)O)[C@@H](C)O)C(C)C [Example 73, N^ε24-[(4S)-4-carboxy-4-[[(4S)-4-carboxy-4-[[(4S)-4-carboxy-4-[[(4S)-4-carboxy-4-(15-carboxypentadecanoylamino)butanoyl]amino]butanoyl]amino]butanoyl]amino]butanoyl]-[Arg12,Ala16,Lys24,Leu27,Ser28]-Glucagon] (H-HSQGTFTSDYSRYLDARRAQDFVK([γGlu-γGlu-γGlu-γGlu-C16 diacid])WLLST-OH) | 0.106 nM
